Here are results for twelve compounds from article PMC12195740, “Discovery of Novel Imidazothiazole-Based Hydroxamic Acid Derivatives as Potent Indoleamine 2,3-Dioxygenase 1 and Histone Deacetylase 6 Dual Inhibitors” (Molecules, 2025).

By IC50 is commonly meant the point on the concentration scale where inhibition reaches its midpoint. The term inhibition denotes the relative decrease from the control value, in per cent.

The target in series [1] is T1, rhIDO1 (Homo sapiens, UniProt P14902).
T1 construct: purchased
Kind of series: IDO1 inhibition assay. Type of series: biochemical. Conditions: means ± S.D. of three independent experiments. The procedure:
Section S1. Biological assays […]
Section S 1.2 IDO1 inhibition assays
IDO1 inhibition assays were carried out according to the manufacturers’ procedures, as described previously. The standard assay mixture (100 μL) contained 50 mM of potassium phosphate buffer (pH = 6.5), 10 mM ascorbate, 10 μM methylene blue, 100 μg/mL catalase, 1 mM L-tryptophan and 10 μg/mL of rhIDO1. The plate was incubated at 37 °C in a dark environment, and reactions were terminated after 60 min by the addition of 50 μL of fluorogenic developer solution and further incubated at 45 °C in dark for 3 h. Then, the plate was allowed to cool to room temperature for at least 1 h. After centrifugation at 1500g for 5 min at 20 °C, the fluorescence […]
M1000 Pro, Tecan US, Morrisville, NC) in an end-point mode. […]

For series [2], the target named is T2, HDAC6 human recombinant enzyme (Homo sapiens, UniProt Q9UBN7).
T2 sequence (Q9UBN7 1-1215): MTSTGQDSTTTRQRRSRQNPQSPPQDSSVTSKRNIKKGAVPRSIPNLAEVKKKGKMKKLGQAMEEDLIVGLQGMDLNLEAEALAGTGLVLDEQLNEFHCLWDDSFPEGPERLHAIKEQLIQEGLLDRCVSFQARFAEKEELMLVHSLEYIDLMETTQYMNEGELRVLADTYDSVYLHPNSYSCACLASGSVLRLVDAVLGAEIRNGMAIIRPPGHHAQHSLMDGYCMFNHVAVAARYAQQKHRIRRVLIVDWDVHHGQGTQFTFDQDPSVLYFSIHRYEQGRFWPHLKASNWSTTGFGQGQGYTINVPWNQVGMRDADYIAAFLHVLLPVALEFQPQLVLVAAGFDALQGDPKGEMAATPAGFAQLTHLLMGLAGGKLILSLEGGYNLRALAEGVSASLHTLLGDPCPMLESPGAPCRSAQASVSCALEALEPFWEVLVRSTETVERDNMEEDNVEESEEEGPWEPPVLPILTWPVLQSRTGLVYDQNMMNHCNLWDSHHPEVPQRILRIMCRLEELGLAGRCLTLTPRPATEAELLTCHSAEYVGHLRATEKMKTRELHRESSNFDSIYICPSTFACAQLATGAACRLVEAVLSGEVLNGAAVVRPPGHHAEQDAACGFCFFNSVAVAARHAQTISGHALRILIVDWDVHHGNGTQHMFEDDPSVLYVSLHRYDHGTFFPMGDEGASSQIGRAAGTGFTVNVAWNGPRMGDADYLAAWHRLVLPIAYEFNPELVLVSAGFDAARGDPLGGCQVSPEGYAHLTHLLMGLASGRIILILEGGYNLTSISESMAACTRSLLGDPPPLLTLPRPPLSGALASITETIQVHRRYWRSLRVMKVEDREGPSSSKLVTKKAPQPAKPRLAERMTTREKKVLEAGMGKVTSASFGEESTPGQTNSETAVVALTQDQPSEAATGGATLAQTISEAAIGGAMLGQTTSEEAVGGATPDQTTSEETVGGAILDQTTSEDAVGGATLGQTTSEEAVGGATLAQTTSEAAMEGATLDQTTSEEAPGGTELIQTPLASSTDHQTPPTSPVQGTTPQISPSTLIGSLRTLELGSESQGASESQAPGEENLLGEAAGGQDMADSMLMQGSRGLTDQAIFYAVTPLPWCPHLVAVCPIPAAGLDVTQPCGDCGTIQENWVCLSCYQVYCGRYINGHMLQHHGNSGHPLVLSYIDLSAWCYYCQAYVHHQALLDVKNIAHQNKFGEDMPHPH
Put plainly: HDAC6 enzyme inhibitory activity assay. Format: biochemical. Conditions: read-out: HDAC6 Inhibition Rate at 1 μM. The procedure:
Section S1. Biological assays
Section S 1.1. HDAC6 enzyme inhibitory activity assay
Preparation of Master Mix. Trichostatin A in DMSO, Fluorogenic HDAC substrate 3, and HDAC6 human recombinant enzyme were diluted to 20 μM, 200 μM, and 7 ng/uL, respectively, using HDAC Assay Buffer.BSA was dissolved in 1 mL of distilled water to make a BSA solution at a concentration of 1 mg/mL. A certain amount of Fluorogenic HDAC substrate 3, BSA and HDAC Assay Buffer were mixed well to make a master mix, and 40 μL of the master mix was added to each well of a 96-well plate. In the drug administration group, 5 μL of Trichostatin A in DMSO and HDAC6 human recombinant enzyme were added to each well. 5 μL of HDAC Assay Buffer and HDAC6 human recombinant enzyme were added to each well of the blank group, and incubated for 30 min at 37 °C. Finally, 50 μL of undiluted HDAC substrate 3, BSA and HDAC Assay Buffer were added to each well. 50 μL of 2x HDAC Developer was added to each well and incubated at room temperature for 15 min. The samples were read in an enzyme marker with an excitation wavelength in the range of 350-380 nm and an emission light in the range of 440-460 nm.
The values of fluorescence intensities were read and the inhibition rate and IC50 were calculated. […]

Series [3] deals with SW480 cells. Kind of series: Cell viability (MTT) assay, SW480. Conditions: Homo sapiens, SW480, 48 h, read-out: Antiproliferative IC50, SW480.
Description: Section S 1.3 Cell viability assays
(§1) Cell Bank at the Chinese Academy of Sciences.
(§2) DMEM and FBS were obtained from Gibco-Thermo (BRL Co. Ltd., USA).
(§3) another 48 h. The cells were stained with 10 μl of MTT at incubator for approximately 4 h. The medium was discarded and replaced by 100 mL DMSO. The O.D. value was read at 570/630 nm with a spectrophotometer.
For series [4], the system named is MCF-7 cells. Put plainly: Cell viability (MTT) assay, MCF-7. The conditions noted are these: Homo sapiens, MCF7, 48 h, read-out: Antiproliferative IC50, MCF-7.
Description: Section S 1.3 Cell viability assays
as §1, §2, §3
Series [5] deals with HCT-116 cells. Put plainly: Cell viability (MTT) assay, HCT-116. Conditions: Homo sapiens, HCT-116, 48 h, read-out: Antiproliferative IC50, HCT-116.
Description: Section S 1.3 Cell viability assays
as §1, §2, §3
Series [6] has as its system MDA-MB-231 cells. Kind of series: Cell viability (MTT) assay, MDA-MB-231. The conditions noted are these: Homo sapiens, MDA-MB-231, 48 h, read-out: Antiproliferative IC50, MDA-MB-231.
Description: Section S 1.3 Cell viability assays
as §1, §2, §3
A short description of series [7]: General toxicity in CT26 tumor-bearing BALB/c mice (body weight, H&E of organs). Type of series: in vivo. The conditions noted are these: 150 mg/kg ip every 3 days for 21 days, versus vehicle group. On the procedure:
After that, fixed cells were washed with PBS. Then, cells were isolated by centrifugation and stained with propidium iodide (KeyGEN BioTECH, China) for 30 min. The samples were measured using flow cytometry and analyzed by Flowjo software.
Section S 1.6 Western blot assay […]
earlier were obtained by lysing the cells in ice-cold RIPA buffer with protease and phosphatase inhibitor and stored at -20°C for future use. The protein concentrations were quantified by the Bradford method (Bio-Rad) using a Multimode Varioscan instrument (Thermo Fischer Scientific). […]
and transferred to a polyvinylidene difluoride (PVDF) membrane (Amersham Biosciences). After the membrane was blocked at room temperature for 2 h in blocking solution, primary antibody was added and incubated at 4°C overnight. Ac-α-tubulin, Ac-histone H3 and GAPDH antibodies were purchased from Imgenex, USA. After three TBST washes, the membrane was incubated with corresponding horseradish peroxidase-labeled secondary antibody (1:2,000) (Santa Cruz) at room temperature for 1 h. Membranes were washed with TBST three times for 15 min and the protein bands were detected with chemiluminescence reagent (Thermo Fischer Scientific). The X-ray films were developed using developer and fixed with fixer solution.
Section S 1.7 In vivo antitumor efficacy […]
line CT-26 in BALB/c mice as described previously. Five-week-old male BALB/c mice were purchased from the Shanghai Ling Chang biotechnology company (China), and tumors were induced through subcutaneous injection of 1 × 10^7 cells in 100 µL of sterile PBS into the dorsal region. The animals were divided into four groups, starting on the second day. When the tumors reached a volume of 50−100 mm3 in all mice, the first group was administered intraperitoneally with an equivalent volume of 5% dextrose as the vehicle control. The second group was treated with […]
treated with complex 10e at doses of 150 mg/kg body weight once every 3 days for 3 weeks, respectively. All compounds were dissolved in vehicle. Tumor volumes and body weights were […]

T1 sequence (P14902 whole entry): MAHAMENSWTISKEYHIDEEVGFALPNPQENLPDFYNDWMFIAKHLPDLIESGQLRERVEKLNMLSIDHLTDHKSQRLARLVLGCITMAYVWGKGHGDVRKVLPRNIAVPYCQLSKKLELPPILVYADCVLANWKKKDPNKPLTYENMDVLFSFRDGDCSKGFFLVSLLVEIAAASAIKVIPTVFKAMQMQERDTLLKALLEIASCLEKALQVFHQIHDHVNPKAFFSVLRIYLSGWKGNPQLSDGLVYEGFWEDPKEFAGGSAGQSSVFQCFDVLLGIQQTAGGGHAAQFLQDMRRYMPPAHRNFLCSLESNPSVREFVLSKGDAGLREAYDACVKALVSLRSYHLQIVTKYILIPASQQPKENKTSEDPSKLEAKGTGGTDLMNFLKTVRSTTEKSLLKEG

`Cc1ccc(-c2csc3ncc(C(=O)NCc4ccc(C(=O)NO)cc4)n23)cc1` [Compound 7b, N-[4-(hydroxycarbamoyl)benzyl]-3-(p-tolyl)imidazo[2,1-b]thiazole-5-carboxamide] returned an IC50 in series [1] of 0.96 ± 0.13 µM. Besides, in series [2], the inhibition at 1 µM amounted to 48%.

For `Cc1ccc(-c2csc3ncc(C(=O)Nc4ccc(NCCC(=O)NO)cc4)n23)cc1` [Compound 10g, N-{4-[(3-(hydroxyamino)-3-oxopropyl)amino]phenyl}-3-(p-tolyl)imidazo[2,1-b]thiazole-5-carboxamide], in series [1], the half-maximal inhibitory concentration (IC50) came out at 2.07 ± 0.29 µM. Further, the inhibition at 1 µM in series [2] came to 31.2%.

Turning to `O=C(CCCCCNc1ccc(NC(=O)c2cnc3scc(-c4ccc(Br)cc4)n23)cc1)NO` [Compound 10d], the IC50 in series [1] is 0.12 ± 0.01 µM; in series [3], above 80 µM; in series [4], 52.9 ± 6.95 µM; in series [5] it was 24.4 ± 4.78 µM; in series [6] it was above 80 µM. Moreover, the inhibition at 1 µM in series [2] was found to be 46.2%.

Regarding `Cc1ccc(-c2csc3ncc(C(=O)Nc4ccc(NCCCCC(=O)NO)cc4)n23)cc1` [Compound 10i, N-{4-[(5-(hydroxyamino)-5-oxopentyl)amino]phenyl}-3-(p-tolyl)imidazo[2,1-b]thiazole-5-carboxamide], inhibition in series [1] was half-maximal at 0.59 ± 0.11 µM (IC50). Moreover, the inhibition at 1 µM in series [2] was found to be 35.5%.

With `Cc1ccc(-c2csc3ncc(C(=O)Nc4ccc(NCCCC(=O)NO)cc4)n23)cc1` [Compound 10h, N-{4-[(4-(hydroxyamino)-4-oxobutyl)amino]phenyl}-3-(p-tolyl)imidazo[2,1-b]thiazole-5-carboxamide], in series [1], the IC50 stood at 1.78 ± 0.47 µM. Besides, the inhibition at 1 µM in series [2] is 33.7%.

In the case of `O=C(CCNc1ccc(NC(=O)c2cnc3scc(-c4ccc(Br)cc4)n23)cc1)NO` [Compound 10a, 3-(4-Bromophenyl)-N-{4-[(3-(hydroxyamino)-3-oxopropyl)amino]phenyl}imidazo[2,1-b]thiazole-5-carboxamide], the IC50 in series [1] was determined as 1.87 ± 0.06 µM. In addition, the inhibition at 1 µM in series [2] was 22.4%.

Compound `O=C(CCCNc1ccc(NC(=O)c2cnc3scc(-c4ccc(Br)cc4)n23)cc1)NO` [Compound 10b, 3-(4-Bromophenyl)-N-{4-[(4-(hydroxyamino)-4-oxobutyl)amino)phenyl}imidazo[2,1-b]thiazole-5-carboxamide] yielded a half-inhibitory concentration (IC50) in series [1] of 1.06 ± 0.02 µM. For the same compound, the inhibition at 1 µM in series [2] is 25.2%.

The compound `Cc1ccc(-c2csc3ncc(C(=O)Nc4ccc(NCC(=O)NO)cc4)n23)cc1` [Compound 10f, N-{4-[(2-(hydroxyamino)-2-oxoethyl)amino]phenyl}-3-(p-tolyl)imidazo[2,1-b]thiazole-5-carboxamide] returned an IC50 in series [1] of 6.16 ± 0.83 µM. For the same compound, the inhibition at 1 µM in series [2] was determined as 28.8%.

For `Cc1ccc(-c2csc3ncc(C(=O)Nc4ccc(NCCCCCC(=O)NO)cc4)n23)cc1` [Compound 10j, N-{4-[(6-(hydroxyamino)-6-oxohexyl)amino]phenyl}-3-(p-tolyl)imidazo[2,1-b]thiazole-5-carboxamide], the IC50 is 0.38 ± 0.05 µM in series [1]; above 80 µM in series [3]; above 80 µM in series [4]; above 80 µM in series [5]; above 80 µM in series [6]. The inhibition at 1 µM in series [2] is 40.2%.

Turning to `O=C(CCCCCCC(=O)Nc1ccccc1)NO` [SAHA, reference compound], in series [2], the inhibition at 1 µM was found to be 91.7%. Also, the “influence on body weight of the mice” value in series [7] was “no obvious influence”.

Compound `O=C(CCCCNc1ccc(NC(=O)c2cnc3scc(-c4ccc(Br)cc4)n23)cc1)NO` [Compound 10c, 3-(4-Bromophenyl)-N-{4-[(5-(hydroxyamino)-5-oxopentyl)amino)phenyl}imidazo[2,1-b]thiazole-5-carboxamide] registered an IC50 in series [1] of 0.34 ± 0.09 µM. The inhibition at 1 µM in series [2] came to 19.4%.

As for `NS(=O)(=O)NCCNc1nonc1C(=NO)Nc1ccc(F)c(Br)c1` [Epacadostat, reference compound], the IC50 in series [3], in series [4], in series [5] and in series [6] was above 80 µM in each case.
